Laboratory results taken from patent publication US9556179B2 (BRISTOL-MYERS SQUIBB COMPANY, priority 2012, dated 2017).

Legend:
CK1ε = CK1ε (Homo sapiens (Human), UniProt P49674); test: CK1ε kinase assay (Caliper LABCHIP electrophoretic separation of fluoresceinated peptide substrate and product); format: biochemical; settings: 200 pM enzyme, 50 μM ATP, 22 hours at room temperature
In short: (§1)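 Reactions ran 22 hours at room temperature and were stopped with EDTA. Phosphorylated product and unphosphorylated substrate were then separated electrophoretically. Compounds were tested at eleven concentrations, and IC50 values came from non-linear regression.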

CK1δ = CK1δ (Homo sapiens (Human), UniProt P48730); test: CK1δ kinase assay (Caliper LABCHIP electrophoretic separation of fluoresceinated peptide substrate and product); format: biochemical; settings: 200 pM enzyme, 50 μM ATP, 22 hours at room temperature
In short: as §1

Chain of CK1δ (P48730 whole entry): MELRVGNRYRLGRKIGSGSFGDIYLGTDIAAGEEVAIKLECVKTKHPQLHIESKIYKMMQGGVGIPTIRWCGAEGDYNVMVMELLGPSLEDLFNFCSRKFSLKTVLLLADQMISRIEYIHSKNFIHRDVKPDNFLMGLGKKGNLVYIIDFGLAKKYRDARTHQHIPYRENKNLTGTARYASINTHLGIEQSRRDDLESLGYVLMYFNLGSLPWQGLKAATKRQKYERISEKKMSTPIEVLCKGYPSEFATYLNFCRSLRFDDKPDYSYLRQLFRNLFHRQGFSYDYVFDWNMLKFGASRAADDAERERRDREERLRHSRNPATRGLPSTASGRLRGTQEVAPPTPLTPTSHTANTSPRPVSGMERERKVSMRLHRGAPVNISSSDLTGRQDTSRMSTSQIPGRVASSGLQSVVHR
Chain of CK1ε (P49674 whole entry): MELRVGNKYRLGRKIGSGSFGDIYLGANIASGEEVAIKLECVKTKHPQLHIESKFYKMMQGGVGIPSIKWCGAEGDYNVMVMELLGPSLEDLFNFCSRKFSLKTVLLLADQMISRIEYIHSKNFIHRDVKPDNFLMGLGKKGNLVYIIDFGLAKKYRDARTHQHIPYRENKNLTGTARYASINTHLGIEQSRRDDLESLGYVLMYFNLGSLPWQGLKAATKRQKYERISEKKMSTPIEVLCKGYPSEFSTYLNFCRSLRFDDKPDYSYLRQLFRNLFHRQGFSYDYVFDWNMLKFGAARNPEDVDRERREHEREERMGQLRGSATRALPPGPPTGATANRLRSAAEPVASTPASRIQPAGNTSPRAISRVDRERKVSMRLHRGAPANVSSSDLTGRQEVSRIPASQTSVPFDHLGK

Structure (SMILES) | IC50 (CK1ε) [nM] | IC50 (CK1δ) [nM]
O=C(Nc1cn2nc(-c3c(-c4ccc(F)cc4)ncn3C3CCN(C(=O)CCC(F)(F)F)CC3)ccc2n1)c1ccnc(F)c1 [Compound 59, 2-fluoro-N-(6-(4-(4-fluorophenyl)-1-(1-(4,4,4-trifluorobutanoyl)piperidin-4-yl)-1H-imidazol-5-yl)imidazo[1,2-b]pyridazin-2-yl)isonicotinamide] | 1.97 | 0.579
O=C(Nc1cn2nc(-c3c(-c4ccc(F)cc4)ncn3C3CCN(C(=O)CN4CCOCC4)CC3)ccc2n1)c1ccnc(F)c1 [Compound 61, 2-fluoro-N-(6-(4-(4-fluorophenyl)-1-(1-(2-morpholinoacetyl)piperidin-4-yl)-1H-imidazol-5-yl)imidazo[1,2-b]pyridazin-2-yl)isonicotinamide] | 1.26 | 0.186
CC(C)(F)C(=O)N1CCC(n2cnc(-c3ccc(F)cc3)c2-c2ccc3nc(NC(=O)c4ccnc(F)c4)cn3n2)CC1 [Compound 64, 2-fluoro-N-(6-(1-(1-(2-fluoro-2-methylpropanoyl)piperidin-4-yl)-4-(4-fluorophenyl)-1H-imidazol-5-yl)imidazo[1,2-6]pyridazin-2-yl)isonicotinamide] | 0.798 | 0.361
O=C(Nc1cn2nc(-c3c(-c4ccc(F)cc4)ncn3C3CCN(C(=O)C4CC4(F)F)CC3)ccc2n1)c1ccnc(F)c1 (stereo not drawn) [Compound 65, N-(6-(1-(1-(2,2-difluorocyclopropanecarbonyl)piperidin-4-yl)-4-(4-fluorophenyl)-1H-imidazol-5-yl)imidazo[1,2-b]pyridazin-2-yl)-2-fluoroisonicotinamide] | 1.37 | 0.256
CC1(C)CC1C(=O)N1CCC(n2cnc(-c3ccc(F)cc3)c2-c2ccc3nc(NC(=O)c4ccnc(F)c4)cn3n2)CC1 (stereo not drawn) [Compound 66, N-(6-(1-(1-(2,2-dimethylcyclopropanecarbonyl)piperidin-4-yl)-4-(4-fluorophenyl)-1H-imidazol-5-yl)imidazo[1,2-6]pyridazin-2-yl)-2-fluoroisonicotinamide] | 7.2 | 0.928
O=C(Nc1cn2nc(-c3c(-c4ccc(F)cc4)ncn3C3CCN(S(=O)(=O)C4CC4)CC3)ccc2n1)c1ccnc(F)c1 [Compound 74, N-(6-(1-(1-(cyclopropylsulfonyl)piperidin-4-yl)-4-(4-fluorophenyl)-1H-imidazol-5-yl)imidazo[1,2-b]pyridazin-2-yl)-2-fluoroisonicotinamide] | 1.52 | 0.675
CC(C)(C)COC(=O)N1CCC(n2cnc(-c3ccc(F)cc3)c2-c2ccc3nc(NC(=O)c4ccnc(F)c4)cn3n2)CC1 [Compound 75, neopentyl 4-(5-(2-(2-fluoroisonicotinamido)imidazo[1,2-b]pyridazin-6-yl)-4-(4-fluorophenyl)-1H-imidazol-1-yl)piperidine-1-carboxylate] | 3.49 | 1.4
CC(C)OC(=O)N1CCC(n2cnc(-c3ccc(F)cc3)c2-c2ccc3nc(NC(=O)c4ccnc(F)c4)cn3n2)CC1 [Compound 76, isopropyl 4-(5-(2-(2-fluoroisonicotinamido)imidazo[1,2-b]pyridazin-6-yl)-4-(4-fluorophenyl)-1H-imidazol-1-yl)piperidine-1-carboxylate] | 1.8 | 0.251
O=C(Nc1cn2nc(-c3c(-c4ccc(F)cc4)ncn3C3CCN(C(=O)OC4CCCC4)CC3)ccc2n1)c1ccnc(F)c1 [Compound 77, cyclopentyl 4-(5-(2-(2-fluoroisonicotinamido)imidazo[1,2-b]pyridazin-6-yl)-4-(4-fluorophenyl)-1H-imidazol-1-yl)piperidine-1-carboxylate] | 14 | 0.744
O=C(Nc1cn2nc(-c3c(-c4ccc(F)cc4)ncn3C3CCN(C(=O)OCC4CC4)CC3)ccc2n1)c1ccnc(F)c1 [Compound 78, cyclopropylmethyl 4-(5-(2-(2-fluoroisonicotinamido)imidazo[1,2-b]pyridazin-6-yl)-4-(4-fluorophenyl)-1H-imidazol-1-yl)piperidine-1-carboxylate] | 2.23 | 0.295
CC(C)COC(=O)N1CCC(n2cnc(-c3ccc(F)cc3)c2-c2ccc3nc(NC(=O)c4ccnc(F)c4)cn3n2)CC1 [Compound 79, isobutyl 4-(5-(2-(2-fluoroisonicotinamido)imidazo[1,2-b]pyridazin-6-yl)-4-(4-fluorophenyl)-1H-imidazol-1-yl)piperidine-1-carboxylate] | 1.91 | 0.376
O=C(Nc1cn2nc(-c3c(-c4ccc(F)cc4)ncn3C3CCN(C(=O)OC4COC4)CC3)ccc2n1)c1ccnc(F)c1 [Compound 80, oxetan-3-yl 4-(5-(2-(2-fluoroisonicotinamido)imidazo[1,2-b]pyridazin-6-yl)-4-(4-fluorophenyl)-1H-imidazol-1-yl)piperidine-1-carboxylate] | 0.809 | 0.171

Stronger by IC50 (CK1ε), values ahead:

IC50 (CK1ε) [nM] | IC50 (CK1δ) [nM] | Structure (SMILES)
0.545 | 0.213 | Cn1ccc(C(=O)N2CCC(n3cnc(-c4ccc(F)cc4)c3-c3ccc4nc(NC(=O)c5ccnc(F)c5)cn4n3)CC2)n1 [Compound 60, 2-fluoro-N-(6-(4-(4-fluorophenyl)-1-(1-(1-methyl-1H-pyrazole-3-carbonyl)piperidin-4-yl)-1H-imidazol-5-yl)imidazo[1,2-b]pyridazin-2-yl)isonicotinamide]
0.256 | 0.313 | Cc1oncc1C(=O)N1CCC(n2cnc(-c3ccc(F)cc3)c2-c2ccc3nc(NC(=O)c4ccnc(F)c4)cn3n2)CC1 [Compound 62, 2-fluoro-N-(6-(4-(4-fluorophenyl)-1-(1-(5-methylisoxazole-4-carbonyl)piperidin-4-yl)-1H-imidazol-5-yl)imidazo[1,2-b]pyridazin-2-yl)isonicotinamide]
0.493 | 0.143 | O=C(Nc1cn2nc(-c3c(-c4ccc(F)cc4)ncn3C3CCN(C(=O)CCCl)CC3)ccc2n1)c1ccnc(F)c1 [Compound 70, N-(6-(1-(1-(3-chloropropanoyl)piperidin-4-yl)-4-(4-fluorophenyl)-1H-imidazol-5-yl)imidazo[1,2-b]pyridazin-2-yl)-2-fluoroisonicotinamide]
0.676 | 0.172 | N#CC1(C(=O)N2CCC(n3cnc(-c4ccc(F)cc4)c3-c3ccc4nc(NC(=O)c5ccnc(F)c5)cn4n3)CC2)CC1 [Compound 71, N-(6-(1-(1-(1-cyanocyclopropanecarbonyl)piperidin-4-yl)-4-(4-fluorophenyl)-1H-imidazol-5-yl)imidazo[1,2-b]pyridazin-2-yl)-2-fluoroisonicotinamide]
0.559 | 0.183 | O=C(Nc1cn2nc(-c3c(-c4ccc(F)cc4)ncn3C3CCN(C(=O)c4c[nH]cn4)CC3)ccc2n1)c1ccnc(F)c1 [Compound 72, N-(6-(1-(1-(1H-imidazole-4-carbonyl)piperidin-4-yl)-4-(4-fluorophenyl)-1H-imidazol-5-yl)imidazo(1,2-b]pyridazin-2-yl)-2-fluoroisonicotinamide]
0.608 | 0.354 | O=C(Nc1cn2nc(-c3c(-c4ccc(F)cc4)ncn3C3CCN(C(=O)c4ccns4)CC3)ccc2n1)c1ccnc(F)c1 [Compound 73, 2-fluoro-N-(6-(4-(4-fluorophenyl)-1-(1-(isothiazole-5-carbonyl)piperidin-4-yl)-1H-imidazol-5-yl)imidazo[1,2-b]pyridazin-2-yl)isonicotinamide]
